From patent EP3324923B1, “COMPOSITIONS AND METHODS USING PALYTHINE” (King's College London, priority 2015, dated 2017)

Columns and labels:
HaCaT keratinocytes [1] = test: Single-cell gel electrophoresis (comet assay) of UV-induced DNA damage; assay type: cell-based, human; conditions: for percentage change in % DNA in the tail in protected cells compared to unprotected cells: n=3, t-test; for Mean % DNA Damage: 10J/cm^2 UVA
Experimental: This measurement is based on the comet assay (single cell gel electrophoresis) which detects damage to nuclear DNA that result from nucleotide excision repair (NER) and nucleotide photooxidation. Using the lesion specific enzymes T4N5 that recognizes CPD and hOGG1 that recognizes 8-oxoGua, palythine was tested by comparing pure palythine compound with naturally occurring amphoteric MAA mixtures to that of industry accepted sun-filter controls.
Powdered sunscreens were dissolved in PBS (Sigma-Aldrich, UK) at a concentration in which they can dissolve fully (0-0.3%). They were then applied (200ul/well) to wells of a 24 well plate containing a washed monolayer of cells. Cells were then irradiated and the sunscreen removed and washed post treatment.
Irradiation was carried out on cells in monolayers at a distance of 3 cm (Solar Simulator) in cold PBS or PBS + sunscreen. The plate was always placed on a cooling platform at 4°C to avoid overheating of the cells. Unirradiated samples were maintained in PBS for the same time and temperature as irradiated samples.
DNA damage was measured using the comet assay, using lesion specific enzymes to determine the type of damaged produced.
Glass slides are pre-coated with 1% agarose and allowed to dry. Cells were treated with UV +/- sunscreens. Positive controls were treated with ice cold 0.03% Hydrogen Peroxide for 5 minutes, negative controls were kept in the same conditions as the treatments without UV exposure.
After treatment cells were scraped gently with a cell scraper in EDTA solution to help dissociate cells and stop clumping. The cells (40ul) were then added to low melting point (LMP) agarose (160ul) and gently mixed. The final concentration of cells in the LMP agarose was 10,000 cells/100ul of agarose. Then 100ul of the agarose-cell solution was pipetted onto the pre-coated slides and a cover slip was placed onto the gels and left to set for 5-10 minutes then removed. Two replicates were placed on each slide. All steps were carried out on a cooled platform at 4°C. Slides were then places into lysis buffer (2.5M NaCl, 100mM EDTA, 10mM TRIS, 1% sodium sarcosinate, 1% Triton x-100, 10% DMSO) overnight at 4°C in the dark.
Slides were then washed in ice-cold ddH2O (2x5 mins) in the dark and once in ice cold enzyme reaction buffer (0.4mM HEPES, imMKCl, 0.005mM EDTA, 0.02mg/ml BSA) for 5 minutes. After this step different lesions were detected using lesion specific enzymes.
Cylcobutane pyrimidine dimers were measured using the T4 endonuclease V (T4endoV) enzyme. After washing, 50ul of enzyme diluted in reaction buffer (hOGG1- 3.2U/ml, T4EndoV - 0.1U/ml) or reaction buffer alone were added to each gel, a cover slip placed on top and left in a humidity chamber in the dark at 37°C for 45 minutes.
After enzyme treatment coverslips were removed and transferred into ice-cold electrophoresis buffer (10mM NaOH, 200mM EDTA, pH13 in ddH2O) and incubated at 4°C in the dark for 20 minutes. Electrophoresis was then carried out in fresh electrophoresis buffer for 25 minutes at 25V (1V/cm) 300mA, at 4°C in the dark. Slides were then washed in neutralisation buffer (0.4M TRIS, pH7.5) for 2x 10 minutes, and then in ddH2O for 2x 5 minutes and slides were allowed to dry overnight.
The DNA embedded in the slides was stained using Propidium Iodide solution (2.5ug/ml in PBS), 50ul of the solution was added to each gel and cover slip placed over. The slides were then analysed on a Zeiss Axiophot epifluorescence microscope (Carl Zeiss, Germany), with a green excitation filter (536nm) detected with a red emission at 617nm. Pictures covering the whole gel were taken, avoiding the outer edges, using a Nikon camera at a magnification of 10x. The images were then analysed using Comet Score Pro software (Tritek Corp, Summerduck, VA), typically scoring 150 individual comets per condition. […]

HaCaT keratinocytes [2] = test: CPD DNA lesion formation by IHC-IF; assay type: cell-based, human; conditions: 20J/cm^2 SSR; palythine 0.3-10%w/v; immediately post exposure; n=3; p<0.0001
Experimental: HaCat keratinocytes were irradiated with 20J/cm^2 of solar simulated UVR radiation with 0% (PBS alone), 0.3%, 4% or 10% of palythine. The relative formation of the CPD DNA lesion was measured by IHC-IF and the relative fluorescent intensity plotted. The data in figure 11 show protection by palythine against solar simulated UVR induced CPD formation by IHC-IF.
The radiation procedure was carried out as described above. Cells were washed, then fixed in 2 % (v/v) paraformaldehyde with 0.5 % (v/v) Triton X-100 in PBS for 30 mins at 4 °C. DNA was then denatured by incubation in 2 M HCl for 10 mins at 37 °C. Nonspecific sites were blocked using blocking buffer of 20 % (v/v) goat serum and 0.1 % (v/v) triton x-100 in PBS for 30 mins at room temperature. The primary antibody used was Anti-CPD (Clone TDM-2) (Cosmobio, Tokyo, Japan) at 1:1000 in blocking buffer for 1 hr at room temperature. Alexafluor 488 was diluted in blocking buffer (1:200 dilution) and incubated for 1 hr at room temperature and finally DAPI was added for 10 mins. Washing was carried out (3x5 mins) between each step.
All assays were performed on HaCat cells grown as a 70-80 % confluent monolayer in multiwell plates. They were washed three times in PBS and covered with palythine dissolved in PBS at differing concentrations (0, 0.1, 0.3 %, 4 % and 10 % w/v). […]

COC1=C(NCC(=O)O)CC(O)(CO)CC1=N (centres unmarked) [palythine]
improved protection from DNA damage (HaCaT keratinocytes [1]; 0.3% palythine (48% damage) versus Gelyma composition at 4% (76% damage)): 58.33%
DNA damage (HaCaT keratinocytes [1]; 0.3% palythine, from the applicant's data): 48%
percentage change in % DNA in the tail in protected cells compared to unprotected cells (HaCaT keratinocytes [1]; 5J/cm^2 solar simulated UVR, 0.3% palythine, figure 9): significant protection
percentage change in % DNA in the tail in protected cells compared to unprotected cells (HaCaT keratinocytes [1]; 20J/cm^2 UVA, 0.3% palythine, figure 10): significant protection
Mean % DNA Damage (HaCaT keratinocytes [1]; No Enzyme (single strand breaks / alkali labile sites), 0.1% palythine in PBS, mean percentage of tail DNA, n=1): 14.263%
Mean % DNA Damage (HaCaT keratinocytes [1]; No Enzyme (single strand breaks / alkali labile sites), 0.3% palythine in PBS, mean percentage of tail DNA, n=1): 9.914%
Mean % DNA Damage (HaCaT keratinocytes [1]; T4N5 (cyclobutane pyrimidine dimers, CPDs), 0.1% palythine): 26.328%
Mean % DNA Damage (HaCaT keratinocytes [1]; T4N5 (cyclobutane pyrimidine dimers, CPDs), 0.3% palythine): 15.345%
protection for the DNA lesions tested (general damage, CPD and 8oxoGua) (HaCaT keratinocytes [1]; comet assay and IHC-IF, palythine at 0.3% or greater, UVA and SSR induced damage, p=<0.05): significant protection
DNA damage caused by UVA and UVB exposure (HaCaT keratinocytes [1]; lesion specific enzymes T4N5 (CPD) and hOGG1 (8-oxoGua)): significantly reduces DNA damage
CPD production compared to irradiated control (HaCaT keratinocytes [2]): significant reduction
